Legend:
[1] = system: PBMC from HLA-A2+ normal donors; test: IFN-γ ELISA of T cells stimulated with overlapping 15-mer TCL1 peptides; type: cell-based, human; conditions: three HLA-A2+ normal donors; 10 μg/ml peptide, 5 stimulations; ELISA after 18 hours
Method: FIGS. 3A-E: TCL1-specific cytotoxic T cells can be generated from normal donors. (FIG. 3A) PBMCs from HLA-A2^+ normal donors were stimulated with overlapping 15-mer peptides spanning the entire length of the TCL1 protein (see Table 2). T cells from each condition were washed and incubated with autologous CD3-depleted PBMC as antigen-presenting cells (APC) in the presence or absence of the corresponding peptide. After 18 hours, the production of IFN-γ was determined in the supernatants by ELISA. Asterisk indicates significant IFN-γ production compared with control (P<0.05). Representative data from one of three normal donors tested is shown. (FIG. 3B) T cell lines generated from HLA-A2^+ normal donors using TCL165-79 peptide were incubated with APC in the presence or absence of the TCL165-79 peptide or control HIV Gag77-85 peptide, and intracellular cytokine assay was performed. The percentage of CD4^+ and CD8^+ T cells producing IFN-γ are shown. […] IFN-γ production was determined as in (FIG. 3A). […]
Peptide-specific T-cell lines were generated from HLA-A2^+ normal donors and patients using methods previously reported (Hida et al., 2002). […] After 18 hours, the production of interferon (IFN)-γ was determined in the supernatants by ELISA. […]

[2] = molecular target: T1, HLA-A2 (Homo sapiens, UniProt P04439, D140Y/D185E/D98H/E176V/E277Q/G131W/G231S/I119V/I121R/I166T/I218V/L300P/L318F/N151K/N90K/P208A/P217A/Q86G/Q94H/R138H/R169H/T345S); test: HLA-A2-binding assay (T2 binding index); conditions: T2 cells, 20 μg/ml peptide, 24 hours
T1 construct: endogenous in cells; host or cells: T2 hybridoma cells (TAP-deficient, HLA-A2+)
Method: FIGS. 4A-D: TCL171-78 is the minimal HLA-A*0201-binding peptide. (FIG. 4A) TCL165-79 peptide-specific T cells derived from HLA-A2^+ normal donors were incubated in the presence or absence of T2 cells and TCL165-79 derived truncated peptides (SEQ ID NOS:1-2; SEQ ID NOS:12-17; SEQ ID NOS:3-11; and SEQ ID NO:18) Flu matrix peptide (FMP58-66) and Gag77-85 peptide were used as controls. After 18 hours, the production of IFN-γ was determined in the supernatants by ELISA. (FIG. 4B) T2 cells were incubated with TCL165-79-derived truncated peptides (SEQ ID NOS:1-2; SEQ ID NOS:12-17; SEQ ID NOS:3-11; and SEQ ID NO:18), and the HLA-A2 binding affinity of each peptide was determined by flow cytometry. The T2 binding index was calculated as described in Materials and Methods. […] (FIG. 4D) TCL165-79 peptide-specific CD8^+ T cells or irrelevant T-cell line were stained with TCL171-78 or HIV Gag77-85 tetramers and analyzed by flow cytometry. […]
TAP-deficient T2 cells were incubated with 20 μg/ml of peptides and 3 μg/ml of β2-microglobulin (Sigma-Aldrich, Cat # M4890) for 24 hours at 37° C. and 5% CO2 in air. The cells were then stained with anti-HLA-A2 PE antibody (BD Biosciences, Cat #560168), and the level of HLA-A2 expression was determined by flow cytometry. […]

TQIGPSLLPIMWQLY [TCL165-79] was tested, and the “induction of peptide-specific IFN-γ-producing T cells” value [1] was “consistently induced peptide-specific IFN-γ-producing T cells” and the “binding to HLA-A2” value [2] was “bound to TAP-deficient T2 cells”.

— patent US9290541B2, “TCL1 peptides for immunotherapy” (Board of Regents, The University of Texas System, priority 2011, dated 2016)
